Reference: patent US8865728B2, “Combinations comprising methotrexate and DHODH inhibitors” (Almirall, S.A., priority 2008, dated 2014)
Entries after “also recorded” stand apart in the source; their conditions may differ.

Experiments:
human DHODH = human DHODH (Homo sapiens, UniProt Q02127); test: Inhibition of human DHODH activity assay (DCIP chromogen reduction); assay type: biochemical; conditions: chromogen reduction assay with DCIP, human enzyme extract; read-out: hDHODH IC50
Protocol: DHODH activity and its inhibition were studied using a chromogen reduction assay with DCIP (2,6-dichlorophenol-indophenol).
Enzyme extracts (8 μl, ˜1.5 μg of human protein) were incubated in 96-well plates. The assay mixture (200 μl) contained 200 μM CoQD, 100 μM L-DHO, 120 μM DCIP in the assay buffer (100 mM HEPES pH 8.0, 150 mM NaCl, 10% Glicerol, 0.05% Triton X-100) and 2 μl of test compound.
The reaction was initiated by adding the enzyme and then incubated for 10 min at room temperature before measuring DCIP reduction by counting a decrease in absorbance at 600 nm using standard instrumentation (Spectramax).
All reactions were carried out in duplicate and graphs, determining IC50 values for each compound, were plotted using the ABase software.

[1] = Acute hepatotoxicity assay in Swiss mice (plasma liver markers); assay type: in vivo; conditions: for ALT plasma level / AST plasma level / BIL (total bilirubin) plasma level: Swiss mice, single 100 mg/kg intraperitoneal, 24 h after administration
Protocol: Acute hepatotoxicity assays were performed in Swiss mice. Animals received a single administration of either vehicle, or 100 mg/kg of teriflunomide or a compound of the present invention (compounds from the list indicated previously) by intraperitoneal route. Twenty-four hours later, animals were sacrificed and the levels of liver markers AST(aspartate aminotransferase), ALT(alanine aminotransferase) and BIL(total bilirubin) in plasma were determined.

[2] = system: rat adjuvant-induced arthritis model (AIA); test: Efficacy in rat adjuvant-induced arthritis model (AIA), curative protocol; assay type: in vivo, Wistar rats; conditions: arthritic rats, oral once a day, MTX 0.05 mg/Kg/day, AUC of right paw volumes days 10-21 vs vehicle; for % AUC inhibition right paw: Teriflunomide 3 mg/Kg/day, one experiment with 6 animals
Protocol: The effect of DHODH inhibitor compounds were tested in combination with methotrexate (0.05 mg/Kg/day) in the rat adjuvant-induced arthritis model (AIA) in animals with established disease (curative protocol). Briefly, Complete Freund Adjuvant (CFA) was injected into the left hind footpad of Wistar rats, and 10 days later the swelling of the two rear paws was measured with a plethysmometer. […] Compounds were administered orally once a day for 10 days and paw volumes were determined every two days up to day 21.

human DHODH, sequence (Q02127 whole entry): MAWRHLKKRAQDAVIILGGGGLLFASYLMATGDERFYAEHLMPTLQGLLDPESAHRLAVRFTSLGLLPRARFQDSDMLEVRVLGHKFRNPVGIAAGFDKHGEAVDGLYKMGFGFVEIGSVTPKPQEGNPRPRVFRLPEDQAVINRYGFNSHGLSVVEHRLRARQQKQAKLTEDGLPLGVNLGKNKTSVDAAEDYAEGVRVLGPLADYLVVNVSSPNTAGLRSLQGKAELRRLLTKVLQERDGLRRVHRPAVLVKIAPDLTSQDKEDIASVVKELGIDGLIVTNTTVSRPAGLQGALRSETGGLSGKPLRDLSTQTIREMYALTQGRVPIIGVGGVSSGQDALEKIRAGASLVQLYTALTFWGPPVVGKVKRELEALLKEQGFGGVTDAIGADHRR

Row | IC50 (human DHODH) | SMILES | ALT plasma level [1] | AST plasma level [1] | BIL (total bilirubin) plasma level [1] | change in plasma liver markers (ALT, AST, BIL) compared to vehicle-treated mice ([1]; mice, intraperitoneal route, 100 mg/kg) | % AUC inhibition right paw [2] | % inhibition of the inflammation (AUC) Right paw ([2]; compound A 3 mg/Kg/day, mean of two independent experiments)
1 | 12 nM | COc1cccc(-c2cc(F)c(Nc3ncc(C)cc3C(=O)O)c(F)c2)c1 [Compound 35, 2-(3,5-Difluoro-3′-methoxybiphenyl-4-ylamino)-5-methylnicotinic acid] |  |  |  |  |  | 
2 |  | C/C(O)=C(\C#N)C(=O)Nc1ccc(C(F)(F)F)cc1 [Teriflunomide, reference compound] | 423 IU/l | 542 IU/l | 0.5 mg/dL | dramatic increase in the three liver markers; also recorded: drastic increase in the levels of transaminases and bilirrubin in plasma | 56% | 
3 |  | CN(Cc1cnc2nc(N)nc(N)c2n1)c1ccc(C(=O)N[C@@H](CCC(=O)O)C(=O)O)cc1 [MTX, Methotrexate] |  |  |  |  | 24% | 37%
4 |  | O=C(O)c1cccnc1Nc1ccc(-c2cccc(OC(F)(F)F)c2)cc1F [Compound 3, 2-(3-Fluoro-3′-(trifluoromethoxy)biphenyl-4-ylamino)nicotinic acid] | 52 IU/l | 83 IU/l | 0.01 mg/dL |  |  | 
5 |  | COc1cccc(-c2cc(F)c(Nc3ncccc3C(=O)O)c(F)c2)c1 [Compound 20, 2-(3,5-Difluoro-3′-methoxybiphenyl-4-ylamino)nicotinic acid] | 73 IU/l | 95 IU/l | 0 mg/dL |  |  | 
6 |  | CCOc1cccc(-c2ccc(Nc3ncccc3C(=O)O)c(F)c2)c1 [Compound 2, 2-(3′-Ethoxy-3-fluorobiphenyl-4-ylamino)nicotinic acid] | 35 IU/l | 57 IU/l | 0 mg/dL |  |  | 
7 |  | O=C(O)c1cccnc1Nc1c(F)cc(-c2cccc(OC3CC3)c2)cc1F [Compound 47, 2-(3′-cyclopropoxy-3,5-difluorobiphenyl-4-ylamino)nicotinic acid] | 66 IU/l | 91 IU/l | 0.14 mg/dL |  |  | 
8 |  | CCOc1cccc(-c2cc(F)c(Nc3ncccc3C(=O)O)c(F)c2)c1 [Compound 19, 2-(3′-Ethoxy-3,5-difluorobiphenyl-4-ylamino)nicotinic acid] | 60 IU/l | 92 IU/l | 0.05 mg/dL |  |  | 
9 |  | COc1cccc(-c2ccc(Nc3ncccc3C(=O)O)c(F)c2)c1 [Compound 1, 2-(3-Fluoro-3′-methoxybiphenyl-4-ylamino)nicotinic acid] | 99 IU/l | 84 IU/l | 0.03 mg/dL |  |  | 
10 |  | Cc1c(-c2ccccc2Cl)cc(F)c(Nc2ncccc2C(=O)O)c1F [Compound 57, 2-(2′-chloro-3,5-difluoro-2-methylbiphenyl-4-ylamino)nicotinic acid] | 60 IU/l | 109 IU/l | 0.06 mg/dL |  |  | 
11 |  | Cc1c(-c2ccccc2)cc(F)c(Nc2ncccc2C(=O)O)c1F [Compound 48, 2-(3,5-difluoro-2-methylbiphenyl-4-ylamino)nicotinic acid] | 44 IU/l | 95 IU/l | 0.08 mg/dL |  |  | 
12 |  | COc1cccc(-c2ccc(Nc3cnccc3C(=O)[O-])c(OC(F)(F)F)c2)c1.[Li+] [Compound 23, Lithium 3-(3′-methoxy-3-(trifluoromethoxy)biphenyl-4-ylamino)isonicotinate] | 35 IU/l | 72 IU/l | 0 mg/dL |  |  | 
13 |  | CCOc1cccc(-c2ccc(Nc3ncccc3C(=O)O)c(OC(F)(F)F)c2)c1 [Compound 4, 2-(3′-Ethoxy-3-(trifluoromethoxy)biphenyl-4-ylamino)nicotinic acid] | 70 IU/l | 108 IU/l | 0.05 mg/dL |  |  | 
